Laboratory results reported in publication PMC11111408, “Concurrent inhibition of oncogenic and wild-type RAS-GTP for cancer therapy” (Nature, 2024).
Values joined by “and” are separate entries in the source; they are usually repeats but may differ in a detail not shown here. Equal values may be shown once.

Key:
[1] = target: T1, CYPA (Homo sapiens, UniProt P62937); experiment: CYPA binding affinity (Kd1), SPR; settings: steady state, (95% CI)
T1 construct: His6-TEV-AviTag-CYPA (full-length); His6-TEV (N); made in house; host or cells: BL21(DE3) Escherichia coli
Protocol: The binding affinity of compounds for CYPA (Kd1) was assessed by SPR on a Biacore 8K instrument as previously described.

[2] = target: NRAS^Q61L (Homo sapiens, UniProt P01111+P62937, Q61L); experiment: RAS binding affinity of compound-bound CYPA (Kd2), SPR; settings: steady state SPR, (95% CI)
[3] = target: KRAS^G13D (Homo sapiens, UniProt P01116+P62937, G13D); experiment: Cellular RAS–RAF (CRAF RBD) disruption, nano-BRET in U2OS cells; type: cell-based; settings: (95% CI)
Source text: KRAS4B, or other small GTPases, containing the indicated mutations were cloned in pNLF-N or pHTN plasmids for expression with an N-terminal nanoluciferase or HaloTag fusion, respectively. […] The following day, the cells were collected by Trypsin and reseeded in a white tissue culture-treated 96-well plate in OptiMem phenol red-free medium (Gibco) containing 4% FBS and a 1:1,000 dilution of NanoBRET 618 HaloTag ligand (Promega). For endpoint concentration response curves, vivazine nanoluciferase substrate was added to 1× concentration in OptiMem phenol red-free medium with 4% FBS. Varying concentrations of inhibitor were added and incubated for 1 or 4 h before the nano-BRET signal was measured on a Perkin Elmer Envision plate reader. For kinetic assays, endurazine nanoluciferase substrate was used in place of vivazine, and the plate was placed in a Cytation5 multi-mode reader pre-equilibrated to 37 °C and 5% CO2.

[4] = Oral bioavailability in mice (LC-MS/MS of blood); type: in vivo; settings: mouse, whole blood, read-out: Oral Bioavailability m%F
[5] = target: T2, GMPPNP–KRAS (Homo sapiens, UniProt P01116, G12C); experiment: SPR binding of RMC-7977 to KRAS in the absence of CYPA; settings: compound alone without CYPA
T2 construct: His6-TEV (N); made in house; host or cells: E. coli BL21(DE3)

[6] = target: T3, KRAS–PI3Kα (Homo sapiens, UniProt P01116, G12C); experiment: Cellular nano-BRET, full length PI3Kα binding to KRAS G12C, G12D, G12V; type: cell-based; settings: KRAS G12C, in the presence of CYPA, single replicates;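 note: U2OS cells expressing KRAS4B mutants carrying N-terminal nanoluciferase or HaloTag fusions, with nano-BRET signal measured after inhibitor exposure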
T3 construct: expressed in transfected cells; host or cells: U2OS

[7] = target: T4, KRAS–PI3Kα (Homo sapiens, UniProt P01116, G12D); experiment: as above; type: cell-based; settings: KRAS G12D, in the presence of CYPA, single replicates
T4 construct: expressed in transfected cells; host or cells: U2OS

[8] = target: T5, KRAS–PI3Kα (Homo sapiens, UniProt P01116, G12V); experiment: as above; type: cell-based; settings: KRAS G12V, in the presence of CYPA, single replicates
T5 construct: expressed in transfected cells; host or cells: U2OS

[9] = target: T6, KRAS–SOS1 (Homo sapiens, UniProt P01116+); experiment: Cellular nano-BRET, catalytic domain of SOS1 binding to KRAS; type: cell-based; settings: in the presence of CYPA, single replicates;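 note: U2OS cells expressing partner proteins fused at the N-terminus to nanoluciferase or HaloTag, nano-BRET signal read after inhibitor exposure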
T6 construct: expressed in transfected cells; host or cells: U2OS

[10] = test system: RAS-less MEFs; experiment: Western blots of isogenic RAS-less MEF cells expressing KRAS variants or BRAF(V600E); type: cell-based, mouse; settings: 24 h, western blot
[11] = test system: NCI-H441 CDX tumours; experiment: NCI-H441 CDX efficacy study; type: in vivo, mouse; settings: NCI-H441 model, 10 mg kg^−1 daily oral, 28 days
Protocol: Xenograft studies were conducted at GenenDesign, Pharmaron, Wuxi AppTec, the laboratory of P. Lito, and the laboratory of C. Ambrogio. […] All procedures related to animal handling, care and treatment were conducted in compliance with all applicable regulations and guidelines of the relevant Institutional Animal Care and Use Committee (IACUC). […] Experimental details are supplied in the Supplementary Methods.

[12] = test system: KRAS^G12D PDAC cell lines; experiment: Western blot time course of RAS signalling in KRAS^G12D PDAC cell lines; type: cell-based, human; settings: KRAS^G12D PDAC cells in culture, 2 h to 48 h
Protocol: Total ERK and vinculin were used as loading controls. […] Source Data
Cells were lysed with MSD Tris Lysis Buffer (MSD, R60TX-2) or a buffer of 1% Triton X-100, 20 mM Tris-HCl, 150 mM NaCl, and 1 mM EDTA, both supplemented with protease and phosphatase inhibitors. Lysates were cleared by centrifugation and quantified by BCA assay (Pierce, 23225). […] Image Studio Lite (Version 5.2.5) and Image Lab (Version 6.1.0 build 7) software were used for data analysis.

[13] = test system: KRAS(G12C)-mutated PDX model from a NSCLC patient relapsed on sotorasib; experiment: Sotorasib resistance xenograft study (KRAS^G12C NSCLC PDX); type: in vivo, mouse; settings: 10 mg kg^−1 daily oral, day 17 of treatment
[14] = target: KRAS^G12R (Homo sapiens, UniProt P01116+P62937, G12R); experiment: RAS binding affinity of compound-bound CYPA (Kd2), SPR; parameters: made in house; host or cells: BL21(DE3) Escherichia coli; settings: steady state SPR, (95% CI)

SMILES: CCn1c(-c2cc(N3CCN(C4CC4)CC3)cnc2[C@H](C)OC)c2c3cc(ccc31)-c1csc(n1)C[C@H](NC(=O)[C@H]1[C@@H]3COC[C@@H]31)C(=O)N1CCC[C@H](N1)C(=O)OCC(C)(C)C2 [RMC-7977]
- Kd [1]: 0.195 µM
- Kd [2]: 0.24 µM
- EC50 [3]: 0.0154 µM
- bioavailability [4]: 63%
- binding to GMPPNP–KRAS [5]: neither RMC-7977 nor CYPA alone exhibited any measurable binding
- Cellular nano-BRET of PI3K⍺ (full-length) binding to KRAS ([6]; RMC-7977 4.115 nM): 18.9 and 18.4569 and 18.8341 and 18.1839 and 17.8374 and 17.916
- Cellular nano-BRET of PI3K⍺ (full-length) binding to KRAS ([6]; RMC-7977 12.346 nM): 15.8416 and 16.2344 and 15.8041 and 16.4517 and 15.615 and 15.4215
- Cellular nano-BRET of PI3K⍺ (full-length) binding to KRAS ([6]; RMC-7977 37.037 nM): 13.5244 and 14.2699 and 13.7436 and 13.7375 and 14.0918 and 13.7581
- Cellular nano-BRET of PI3K⍺ (full-length) binding to KRAS ([6]; RMC-7977 111.111 nM): 13.3801 and 13.6296 and 13.7851 and 13.3968 and 13.4702 and 13.5585
- Cellular nano-BRET of PI3K⍺ (full-length) binding to KRAS ([6]; RMC-7977 333.333 nM): 13.479 and 13.457 and 13.6054 and 13.4472 and 13.3596 and 13.441
- Cellular nano-BRET of PI3K⍺ (full-length) binding to KRAS ([6]; RMC-7977 1000.000 nM): 13.0371 and 13.4964 and 13.2247 and 13.6424 and 13.499 and 13.5185
- Cellular nano-BRET of PI3K⍺ (full-length) binding to KRAS ([7]; RMC-7977 12.346 nM): 15.8391 and 14.8964 and 15.0849 and 14.7399 and 14.2306 and 14.9536
- Cellular nano-BRET of PI3K⍺ (full-length) binding to KRAS ([7]; RMC-7977 37.037 nM): 13.3166 and 13.8897 and 13.2531 and 13.6566 and 13.0465 and 13.0111
- Cellular nano-BRET of PI3K⍺ (full-length) binding to KRAS ([7]; RMC-7977 111.111 nM): 12.9631 and 12.8542 (2×) and 12.751 and 12.7145 and 12.5362
- Cellular nano-BRET of PI3K⍺ (full-length) binding to KRAS ([7]; RMC-7977 333.333 nM): 12.4418 and 12.5115 and 12.0796 and 12.2384 and 12.3217 and 12.5478
- Cellular nano-BRET of PI3K⍺ (full-length) binding to KRAS ([7]; RMC-7977 1000.000 nM): 12.9103 and 12.8341 and 12.4299 and 12.848 and 12.6569 and 12.4165
- Cellular nano-BRET of PI3K⍺ (full-length) binding to KRAS ([8]; RMC-7977 4.115 nM): 19.5671 and 18.6162 and 18.8909 and 19.2958
- Cellular nano-BRET of PI3K⍺ (full-length) binding to KRAS ([8]; RMC-7977 12.346 nM): 17.0686 and 16.4926 and 17.3848 and 16.3061 and 17.5986 and 16.6607
- Cellular nano-BRET of PI3K⍺ (full-length) binding to KRAS ([8]; RMC-7977 37.037 nM): 14.0491 and 14.079 and 13.7071 and 13.4685 and 14.6716 and 13.9571
- Cellular nano-BRET of PI3K⍺ (full-length) binding to KRAS ([8]; RMC-7977 111.111 nM): 13.3096 and 12.8133 and 13.2135 and 13.4943 and 13.3044 and 13.1946
- Cellular nano-BRET of PI3K⍺ (full-length) binding to KRAS ([8]; RMC-7977 333.333 nM): 13.0302 and 13.2252 and 12.7334 and 12.2876 and 12.5409 and 12.8603
- Cellular nano-BRET of PI3K⍺ (full-length) binding to KRAS ([8]; RMC-7977 1000.000 nM): 12.5669 and 12.7724 and 12.7825 and 12.8803 and 12.1527 and 13.0533
- Cellular nano-BRET of SOS1 (catalytic domain) binding to KRAS WT ([9]; RMC-7977 0.152 nM): 8.563 and 8.127 and 7.755 and 7.611 and 8.1239 and 8.058
- Cellular nano-BRET of SOS1 (catalytic domain) binding to KRAS WT ([9]; RMC-7977 0.457 nM): 8.149 and 7.736 and 7.651 and 7.24 and 7.671 and 7.508
- Cellular nano-BRET of SOS1 (catalytic domain) binding to KRAS WT ([9]; RMC-7977 1.372 nM): 7.907 and 7.747 and 7.493 and 7.384 and 7.007 and 7.17
- Cellular nano-BRET of SOS1 (catalytic domain) binding to KRAS WT ([9]; RMC-7977 4.115 nM): 6.922 and 7.229 and 6.471 and 6.374 and 6.52 and 6.661
- Cellular nano-BRET of SOS1 (catalytic domain) binding to KRAS WT ([9]; RMC-7977 12.346 nM): 6.508 and 6.709 and 6.01 and 5.988 and 6.2252 and 6.045
- Cellular nano-BRET of SOS1 (catalytic domain) binding to KRAS WT ([9]; RMC-7977 37.037 nM): 7.064 and 6.964 and 6.2728 and 5.9257 and 6.205 and 6.027
- Cellular nano-BRET of SOS1 (catalytic domain) binding to KRAS WT ([9]; RMC-7977 111.111 nM): 6.712 and 6.771 and 6.171 and 6.63 and 5.929 and 6.341
- Cellular nano-BRET of SOS1 (catalytic domain) binding to KRAS WT ([9]; RMC-7977 333.333 nM): 6.383 and 7.187 and 5.742 and 6.572 and 6.198 and 6.656
- Cellular nano-BRET of SOS1 (catalytic domain) binding to KRAS WT ([9]; RMC-7977 1000.000 nM): 6.907 and 6.939 and 5.652 and 5.948 and 6.113 and 6.236
- pERK suppression in RAS-less MEFs [10]: suppressed pERK in all KRAS-expressing cells, but not in BRAF(V600E)-expressing RAS-less MEFs
- mean tumour regression [11]: 83%
- pERK suppression over time [12]: sustained pERK suppression
- inhibition of tumour growth [13]: 90%
- Kd [14]: 0.272 µM
